{"source": "patent US20130216590A1", "about": "“TOPICAL ANTIVIRAL FORMULATIONS FOR PREVENTION OF TRANSMISSION OF HSV-2” (priority 2010, published 2013)", "key": {"HSV-2 (G) [1]": {"system": "HSV-2 (G)", "experiment": "Co-infection of TZM-bl cells with HIV-1 and HSV-2: HSV-2-induced cytopathicity", "format": "cell-based", "details": "TZM-bl cultures co-infected with HIV-1(NL4.3) and HSV-2(G)", "description": "(§1) The TZM-bl cell line is derived from HeLa cells and expresses high levels of CD4, CCR5 and CXCR4. In addition, this cell line is stably transduced with a LTR-driven firefly luciferase and E. coli-galactosidase gene (15). In a 96-well tray, 10,000 TZM-bl cells were seeded on day 1. […] Next, 100 μl of a virus suspension containing either HIV-1 (NL4.3), HSV-2 (G) or both viruses together was administered. Two to three days post infection, HIV-1 infection was monitored based on the determination of luciferase activity. For this means, 100 μl of culture supernatant was removed and 100 μl of Bright-Glo Luciferase Assay Substrate (Promega, Madison, USA) was added. The luminescence signal was measured using the Safire 2 microtiter plate reader (Tecan, Männedorf, Switzerland). A control condition containing only mock-infected cells was also included to measure the background luminescence levels. Three days post infection, HSV-2-induced cytopathicity was recorded microscopically based on giant cell formation."}, "HSV-2 (G) [2]": {"system": "HSV-2 (G)", "experiment": "Organotypic epithelial raft cultures infected with HSV-2", "format": "cell-based", "description": "(§2) For the preparation of epidermal equivalents, a collagen matrix solution was made with collagen mixed on ice with 10-fold concentrated HAM's F12 media, 10-fold reconstitution buffer and Swiss 3T3 J2 fibroblasts. One milliliter of the collagen matrix solution was poured into the wells of 24-well microtiter plates. After gel equilibration with 1 ml of growth medium overnight at 37° C., 2.5×10^5 PHK cells were seeded on the top of the gels and maintained submerged for 24-48 hours. The collagen rafts were raised and placed onto stainless-steel grids at the interface between air and liquid culture medium. The growth medium was a mixture of ⅓ HAM F12 and ⅔ Dulbecco's modified Eagle's medium, with the same supplements as used for the Keratinocyte-SFM. Epithelial cells were allowed to stratify, the medium being replaced every 2-3 days. For the evaluation of the antiviral effects of the compounds in the raft system, two series of rafts were run in parallel, one for histological examination and the other one for quantification of viral production by a plaque reduction assay. Rafts were infected with 5,000 PFU of HSV-1 (KOS) or […] strains after 10 days post-lifting and then the medium was replaced by medium containing different dilutions of the compounds. The growth medium containing the different concentrations of the compounds was changed two days later and 3 days later (after 15 days of differentiation), one series of rafts was fixed in 10% buffered formalin, embedded in paraffin and stained with hematoxylin and eosin for histological evaluation. Another series of rafts was used to quantify virus production. For that purpose, each raft was frozen in 3 ml phosphate buffer saline (PBS) and thawed to release the virus from the infected epithelium. Supernatants were clarified by centrifugation at 1,800 rpm and titrated by a plaque assay in HEL cell cultures. Virus production in each raft was then calculated. Two rafts were used for each drug concentration to determine the effects of the compounds on virus yield."}, "HSV-2 strain G (HSV-2G)": {"system": "HSV-2 strain G (HSV-2G)", "experiment": "Human ex vivo tonsillar tissue, HSV DNA release by real-time PCR", "format": "cell-based", "description": "(§3) For each experimental condition 16 tissue blocks were immersed in 500 μl of a HSV-2 (strain G) suspension for 2 hours at 37° C., washed three times with PBS and then placed on the gelfoam rafts. Tenofovir was added during the infection and replenished at each culture medium change. Herpes simplex viral replication was evaluated by the release of viral DNA into the culture medium as measured by quantitative real-time PCR (17). HIV-1 replication was evaluated by the release of p24 capsid antigen using a bead-based assay (18)."}, "[3]": {"system": "thymidine kinase-deficient HSV-1 clinical isolates", "experiment": "microbe, parasite or virus in culture", "format": "cell-based", "details": "Human alphaherpesvirus 1, Fibroblast"}, "HSV-2 (strain G)": {"system": "HSV-2 (strain G)", "experiment": "Human ex vivo cervico-vaginal tissue, HSV-2 DNA release", "format": "cell-based", "details": "166 μg/ml", "description": "as §3"}, "[4]": {"system": "HSV-1 wt clinical isolates", "experiment": "HSV CPE reduction assay, clinical isolates in HEL fibroblast cell cultures", "format": "cell-based", "details": "Human alphaherpesvirus 1, Fibroblast"}, "HSV-1 (Kos strain)": {"system": "HSV-1 (Kos strain)", "experiment": "In vivo antiviral activity in HSV-1-infected NMRI athymic nude mice", "details": "1% topical, 5 days", "description": "(§4) Adult NMRI athymic nude mice (weighing ˜20 g) were scarified on the lumbosacral area over a surface of about 1 cm^2. Mice were inoculated with 5×10^3 PFU of HSV-1 (Kos strain) or 5×10^2 of HSV-2 (G strain) in 50 μL per mouse. […] In each experiment, a group of animals treated with a placebo formulation that was the same as the test formulation without drug was included as a negative control. […] The day of virus inoculation was always considered as day 0. All animal procedures were approved by the K.U. Leuven Animal Care Committee. Development of lesions and mortality were recorded over a one month period. Animals were euthanized when more than 30% loss in body weight or development of paralysis occurred. Survival rates were estimated according to the Kaplan-Meir method and were compared using the log-rank test (Mantel-Cox) test (GraphPad Prism)."}, "HIV-1 (NL4.3)": {"system": "HIV-1 (NL4.3)", "experiment": "Co-infection of TZM-bl cells with HIV-1 and HSV-2: LTR-driven luciferase", "format": "cell-based", "details": "presence or absence of an ongoing HSV-2 infection; data not shown", "description": "as §1"}, "HIV-1": {"system": "HIV-1", "details": "cited from earlier work"}, "HSV-1 (KOS)": {"system": "HSV-1 (KOS)", "experiment": "Organotypic epithelial raft cultures infected with HSV-1", "format": "cell-based", "description": "as §2"}, "[5]": {"system": "HSV-2 strain MS (HSV-2MS)", "experiment": "Human ex vivo tonsillar tissue, HSV DNA release by real-time PCR", "format": "cell-based"}, "HSV-1 strain F (HSV-1F)": {"system": "HSV-1 strain F (HSV-1F)", "experiment": "Human ex vivo tonsillar tissue, HSV DNA release by real-time PCR", "format": "cell-based", "details": "Human alphaherpesvirus 1, read-out: EC50, suppression of replication"}, "[6]": {"system": "organotypic raft cultures of keratinocytes", "experiment": "Toxic effects in organotypic epithelial raft cultures", "format": "cell-based", "details": "highest concentration, 200 μg/ml", "description": "as §2"}, "HSV-2 (G strain)": {"system": "HSV-2 (G strain)", "experiment": "In vivo antiviral activity in HSV-2-infected NMRI athymic nude mice", "description": "as §4"}, "[7]": {"details": "Human alphaherpesvirus 2, read-out: EC50, suppression of replication"}}, "note": "Like-named read-outs stand apart in the source and are kept apart here."}
{"smiles": "C[C@H](Cn1cnc2c(N)ncnc21)OCP(=O)(O)O", "note": "[tenofovir, (R)-9-(2-phosphonylmethoxypropyl)adenine]", "values": [{"measurement": "drug concentration that prevented HSV-2 infection", "setting": "HSV-2 (G) [1]", "value": "~60", "unit": "µg/mL"}, {"measurement": "protection of the epithelium against HSV-2-induced cytopathicity (morphological analysis)", "setting": "HSV-2 (G) [2]; 2 μg/ml", "value": "inactive"}, {"measurement": "protection of the epithelium against HSV-2-induced cytopathicity (morphological analysis)", "setting": "HSV-2 (G) [2]; 20 μg/ml and 5 μg/ml", "value": "partially protective"}, {"measurement": "protection of the epithelium against HSV-2-induced cytopathicity (morphological analysis)", "setting": "HSV-2 (G) [2]; 200 μg/ml and 50 μg/ml", "value": "protected the entire epithelium"}, {"measurement": "reduction in virus production", "setting": "HSV-2 (G) [2]; HSV-2, 20 μg/ml", "value": 0.9, "unit": "log"}, {"measurement": "reduction in virus yield", "setting": "HSV-2 (G) [2]; HSV-2, 50 μg/ml", "value": 1.75, "unit": "logs"}, {"measurement": "log reduction in virus production (PFU) per raft", "setting": "HSV-2 (G) [2]; HSV-2, 200 μg/ml", "value": 5.4, "unit": "log"}, {"measurement": "reduction of virus replication in the rafts", "setting": "HSV-2 (G) [2]; lower concentrations (below 20 μg/ml)", "value": "unable to reduce virus replication"}, {"measurement": "reduction of replication compared to infected donor matched-untreated tissue", "setting": "HSV-2 strain G (HSV-2G); 66 μg/ml, HSV-2G", "value": "94±7", "unit": "%"}, {"measurement": "release of viral DNA in culture medium", "setting": "HSV-2 strain G (HSV-2G); 66 μg/ml, day 9 post infection, IQR 3.6-6.1, untreated 7.6", "value": 5.2, "unit": "log10 DNA copies/ml"}, {"measurement": "EC50", "setting": "HSV-2 strain G (HSV-2G); [7]", "value": 14, "unit": "µg/mL"}, {"measurement": "EC50", "setting": "[3]; read-out: mean EC50", "value": "≥ 166", "unit": "µg/mL"}, {"measurement": "EC50", "setting": "[3]; read-out: range of EC50", "value": "≥ 117", "unit": "µg/mL"}, {"measurement": "viral production (cumulative viral DNA release)", "setting": "HSV-2 (strain G); 12 days of culture, IQR 4.8-5.7, untreated 6.6", "value": 5.5, "unit": "log10 copies/mL"}, {"measurement": "reduction of viral replication (averaged over experiments)", "setting": "HSV-2 (strain G); n=5", "value": "78±9", "unit": "%"}, {"measurement": "EC50", "setting": "[4]; read-out: mean EC50", "value": 130, "unit": "µg/mL"}, {"measurement": "EC50", "setting": "[4]; read-out: range of EC50", "value": "114 to 160", "unit": "µg/mL"}, {"measurement": "morbidity and survival curves compared to the placebo-treated group", "setting": "HSV-1 (Kos strain)", "value": "significantly delayed"}, {"measurement": "suppression of HIV-1", "setting": "HIV-1 (NL4.3)", "value": "equally suppressed"}, {"measurement": "reduction of HIV-1 transmission", "setting": "HIV-1; 1% gel, women with high adherence", "value": 54, "unit": "%"}, {"measurement": "overall decrease in the frequency of the sexual transmission of HIV-1", "setting": "HIV-1; formulated as a 1% gel, approximately 900 African women", "value": 39, "unit": "%"}, {"measurement": "protection of the epithelium from HSV-1-induced cytopathic effect", "setting": "HSV-1 (KOS); 20 μg/ml", "value": "full destruction"}, {"measurement": "protection of the epithelium from HSV-1-induced cytopathic effect", "setting": "HSV-1 (KOS); 50 μg/ml", "value": "partial protection"}, {"measurement": "reduction in virus yield", "setting": "HSV-1 (KOS); HSV-1, 50 μg/ml", "value": 0.81, "unit": "logs"}, {"measurement": "log reduction in virus production (PFU) per raft", "setting": "HSV-1 (KOS); HSV-1, 200 μg/ml", "value": 2.6, "unit": "log"}, {"measurement": "concentration giving complete protection from virus-induced cytopathic effect", "setting": "HSV-1 (KOS); reference HSV-1 laboratory strain", "value": 200, "unit": "µg/mL"}, {"measurement": "reduction of replication compared to infected donor matched-untreated tissue", "setting": "[5]; 66 μg/ml, HSV-2MS", "value": "89±2", "unit": "%"}, {"measurement": "release of viral DNA in culture medium", "setting": "[5]; 66 μg/ml, day 9 post infection, IQR 5.7-6.1, untreated 7.3", "value": 5.8, "unit": "log10 DNA copies/ml"}, {"measurement": "EC50", "setting": "[5]; [7]", "value": 19, "unit": "µg/mL"}, {"measurement": "EC50", "setting": "HSV-1 strain F (HSV-1F)", "value": 7, "unit": "µg/mL"}, {"measurement": "toxic effects (increase in number of dead cells or alteration of differentiation)", "setting": "[6]", "value": "No toxic effects"}, {"measurement": "survival curves and morbidity curves versus the placebo group", "setting": "HSV-2 (G strain); DMSO formulation, starting the day of infection", "value": "statistically significant difference"}, {"measurement": "appearance of lesions and subsequent death", "setting": "HSV-2 (G strain); formulated in the gel at 1%", "value": "delayed the appearance of herpes virus-related lesions and subsequent death"}]}
